From patent publication US20250257086A1, “EGFR DEGRADATION AGENT” (Beijing Tide Pharmaceutical Co., Ltd., priority 2022, published 2025)

Target: Ba/F3 (EGFR^L858R/T790M/C797S) cells (Homo sapiens, UniProt P00533, T790M/C797S/L858R, cells depend on it)
Assay: Antiproliferative activity on Ba/F3 (EGFR L858R/T790M/C797S) cells (CTG)
Type: cell-based
Details: 72h incubation, CTG luminescence, read-out: IC50 (nM), antiproliferative activity
Description: 30 nL of the compound dilution was added to a 384-well plate by Echo (Labcyte, Echo550).
The percent inhibition rate (% inhibition) was calculated by the following formula
[formula] • LUMcmpd: Luminescence value of assay compound. • LUMpositive: Average LUM value of positive drug with a concentration of 10 μM. • LUMvehicle: Average LUM value of negative control group without drug treatment.
The nonlinear regression curve (dose response-variable slope) between the value of inhibition rate (%) and the logarithm of compound concentration was fitted with graphpad prism 8.0, the effect dose curve of compound was drawn, and the IC50 value was calculated.
Y=Bottom+(Top−Bottom)/(1+10^((Log IC50−X)*HillSlope)) • X-axis: logarithm of compound concentration; Y axis: inhibition rate (% inhibition).

Sequence of Ba/F3 (EGFR^L858R/T790M/C797S) cells (P00533 whole entry T790M/C797S/L858R): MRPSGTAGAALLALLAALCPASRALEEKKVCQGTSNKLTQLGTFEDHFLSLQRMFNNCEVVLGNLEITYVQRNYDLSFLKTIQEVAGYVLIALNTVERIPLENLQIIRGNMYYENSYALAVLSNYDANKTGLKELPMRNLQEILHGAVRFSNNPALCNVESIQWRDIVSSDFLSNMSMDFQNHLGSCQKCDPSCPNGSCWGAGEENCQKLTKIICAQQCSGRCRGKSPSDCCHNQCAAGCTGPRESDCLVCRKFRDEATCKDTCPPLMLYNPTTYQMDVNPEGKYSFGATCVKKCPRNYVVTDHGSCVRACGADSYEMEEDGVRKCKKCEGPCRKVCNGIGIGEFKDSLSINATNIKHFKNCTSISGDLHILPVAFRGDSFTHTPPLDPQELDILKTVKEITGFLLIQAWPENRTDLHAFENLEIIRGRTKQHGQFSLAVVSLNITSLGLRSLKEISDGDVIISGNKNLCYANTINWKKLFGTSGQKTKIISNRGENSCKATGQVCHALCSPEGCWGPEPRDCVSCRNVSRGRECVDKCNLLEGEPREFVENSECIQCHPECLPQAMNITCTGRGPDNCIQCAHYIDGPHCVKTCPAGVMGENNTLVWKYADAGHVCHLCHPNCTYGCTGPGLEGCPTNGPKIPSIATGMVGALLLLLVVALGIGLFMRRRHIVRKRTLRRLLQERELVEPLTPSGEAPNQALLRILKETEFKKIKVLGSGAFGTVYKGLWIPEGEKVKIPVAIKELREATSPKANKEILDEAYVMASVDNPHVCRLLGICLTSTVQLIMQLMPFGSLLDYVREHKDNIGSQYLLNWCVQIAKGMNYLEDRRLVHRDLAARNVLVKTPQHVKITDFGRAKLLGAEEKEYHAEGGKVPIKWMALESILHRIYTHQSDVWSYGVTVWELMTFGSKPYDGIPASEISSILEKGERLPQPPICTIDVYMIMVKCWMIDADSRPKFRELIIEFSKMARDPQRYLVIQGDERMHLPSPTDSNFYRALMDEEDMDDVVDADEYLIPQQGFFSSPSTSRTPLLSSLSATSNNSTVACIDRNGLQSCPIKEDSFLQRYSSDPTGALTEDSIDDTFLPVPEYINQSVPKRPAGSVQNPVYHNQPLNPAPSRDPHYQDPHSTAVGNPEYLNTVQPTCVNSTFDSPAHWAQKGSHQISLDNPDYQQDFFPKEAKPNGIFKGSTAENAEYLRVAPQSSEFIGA

| Structure (SMILES) | GI50 [nM] |
| --- | --- |
| C=CC(=O)Nc1cc(Nc2ncc(Br)c(Nc3ccccc3P(C)(C)=O)n2)c(OC)cc1N1CCC(N2CCN(C)CC2)CC1 [Comparative compound L495, reference compound] | 3740 |
| CC#CC(=O)Nc1cc(Nc2ncc(Cl)c(Nc3ccccc3P(C)(C)=O)n2)c(OC)cc1N1CCC(N2CCN(C)CC2)CC1 [Comparative compound L521, reference compound] | 3050 |
| C=CC(=O)Nc1cc(Nc2ncc(Br)c(Nc3ccccc3P(C)(C)=O)n2)c(OC)cc1N1CCC(N2CCN(CCCCC#Cc3cccc4c3CN(C3CCC(=O)NC3=O)C4=O)CC2)CC1 (stereo not drawn) [Compound D479, N-(5-((5-bromo-4-((2-(dimethylphosphoryl)phenyl)amino)pyrimidin-2-yl)amino)-2-(4-(4-(6-(2-(2,6-dioxopiperidin-3-yl)-1-oxoisoindolin-4-yl)hex-5-yn-1-yl)piperazin-1-yl)piperidin-1-yl)-4-methoxyphenyl)acrylamide] | 86.8 |
| C=CC(=O)Nc1cc(Nc2ncc(Cl)c(Nc3ccccc3P(C)(C)=O)n2)c(OC)cc1N1CCC(N2CCN(CCCC#Cc3cccc4c3CN(C3CCC(=O)NC3=O)C4=O)CC2)CC1 (stereo not drawn) [Compound D481, N-(5-((5-chloro-4-((2-(dimethylphosphoryl)phenyl)amino)pyrimidin-2-yl)amino)-2-(4-(4-(5-(2-(2,6-dioxopiperidin-3-yl)-1-oxoisoindolin-4-yl)pent-4-yn-1-yl)piperazin-1-yl)piperidin-1-yl)-4-methoxyphenyl)acrylamide] | 68.7 |
| C=CC(=O)Nc1cc(Nc2ncc(Br)c(Nc3ccccc3P(C)(C)=O)n2)c(OC)cc1N1CCC(N2CCN(CCCCCC#Cc3cccc4c3CN(C3CCC(=O)NC3=O)C4=O)CC2)CC1 (stereo not drawn) [Compound D503, N-(5-((5-bromo-4-((2-(dimethylphosphoryl)phenyl)amino)pyrimidin-2-yl)amino)-2-(4-(4-(7-(2-(2,6-dioxopiperidin-3-yl)-1-oxoisoindolin-4-yl)hept-6-yn-1-yl)piperazin-1-yl)piperidin-1-yl)-4-methoxyphenyl)acrylamide] | 51.2 |
| COc1cc(N2CCC(N3CCN(CCCC#Cc4cccc5c4CN(C4CCC(=O)NC4=O)C5=O)CC3)CC2)c(NC(=O)/C=C/CN(C)C)cc1Nc1ncc(Cl)c(Nc2ccccc2P(C)(C)=O)n1 (stereo not drawn) [Compound D555, N-(5-((5-chloro-4-((2-(dimethylphosphoryl)phenyl)amino)pyrimidin-2-yl)amino)-2-(4-(4-(5-(2-(2,6-dioxopiperidin-3-yl)-1-oxoisoindolin-4-yl)pent-4-yn-1-yl)piperazin-1-yl)piperidin-1-yl)-4-methoxyphenyl)-4-(dimethylamino)but-2-enamide] | 67.6 |
| COc1cc(N2CCC(N3CCN(CCCCC#Cc4cccc5c4CN(C4CCC(=O)NC4=O)C5=O)CC3)CC2)c(NC(=O)/C=C/CN(C)C)cc1Nc1ncc(Cl)c(Nc2ccccc2P(C)(C)=O)n1 (stereo not drawn) [Compound D556, (E)-N-(5-((5-chloro-4-((2-(dimethylphosphoryl)phenyl)amino)pyrimidin-2-yl)amino)-2-(4-(4-(6-(2-(2,6-dioxopiperidin-3-yl)-1-oxoisoindolin-4-yl)hex-5-yn-1-yl)piperazin-1-yl)piperidin-1-yl)-4-dimethoxyphenyl)-4-(dimethylamino)but-2-enamide] | 582 |
| COc1cc(N2CCC(N3CCN(CCCCCC#Cc4cccc5c4CN(C4CCC(=O)NC4=O)C5=O)CC3)CC2)c(NC(=O)/C=C/CN(C)C)cc1Nc1ncc(Cl)c(Nc2ccccc2P(C)(C)=O)n1 (stereo not drawn) [Compound D557, (E)-N-(5-((5-chloro-4-((2-(dimethylphosphoryl)phenyl)amino)pyrimidin-2-yl)amino)-2-(4-(4-(7-(2-(2,6-dioxopiperidin-3-yl)-1-oxoisoindolin-4-yl)hept-6-yn-1-yl)piperazin-1-yl)piperidin-1-yl)-4-dimethoxyphenyl)-4-(dimethylamino)but-2-enamide] | 383 |
| CC#CC(=O)Nc1cc(Nc2ncc(Cl)c(Nc3ccccc3P(C)(C)=O)n2)c(OC)cc1N1CCC(N2CCN(CCCCC#Cc3cccc4c3CN(C3CCC(=O)NC3=O)C4=O)CC2)CC1 (stereo not drawn) [Compound D559, N-(5-((5-chloro-4-((2-(dimethylphosphoryl)phenyl)amino)pyrimidin-2-yl)amino)-2-(4-(4-(6-(2-(2,6-dioxopiperidin-3-yl)-1-oxoisoindolin-4-yl)hex-5-yn-1-yl)piperazin-1-yl)piperidin-1-yl)-4-methoxyphenyl)but-2-ynamide] | 50.4 |
| CC#CC(=O)Nc1cc(Nc2ncc(Cl)c(Nc3ccccc3P(C)(C)=O)n2)c(OC)cc1N1CCC(N2CCN(CCCCCC#Cc3cccc4c3CN(C3CCC(=O)NC3=O)C4=O)CC2)CC1 (stereo not drawn) [Compound D560, N-(5-((5-chloro-4-((2-(dimethylphosphoryl)phenyl)amino)pyrimidin-2-yl)amino)-2-(4-(4-(7-(2-(2,6-dioxopiperidin-3-yl)-1-oxoisoindolin-4-yl)hept-6-yn-1-yl)piperazin-1-yl)piperidin-1-yl)-4-methoxyphenyl)but-2-ynamide] | 112 |
| COc1cc(N2CCC(N3CCN(CCCCCC#Cc4cccc5c4CN(C4CCC(=O)NC4=O)C5=O)CC3)CC2)c(NC(=O)/C=C/CN(C)C)cc1Nc1ncc(Br)c(Nc2ccccc2P(C)(C)=O)n1 (stereo not drawn) [Compound D563, N-(5-((5-bromo-4-((2-(dimethylphosphoryl)phenyl)amino)pyrimidin-2-yl)amino)-2-(4-(4-(7-(2-(2,6-dioxopiperidin-3-yl)-1-oxoisoindolin-4-yl)hept-6-yn-1-yl)piperazin-1-yl)piperidin-1-yl)-4-dimethoxyphenyl)-4-(dimethylamino)but-2-enamide] | 306 |
| COc1cc(N2CCC(N3CCN(CCCC#Cc4cccc5c4CN(C4CCC(=O)NC4=O)C5=O)CC3)CC2)c(NC(=O)/C=C/c2c[nH]cn2)cc1Nc1ncc(Cl)c(Nc2ccccc2P(C)(C)=O)n1 (stereo not drawn) [Compound D581, N-(5-((5-chloro-4-((2-(dimethylphosphoryl)phenyl)amino)pyrimidin-2-yl)amino)-2-(4-(4-(5-(2-(2,6-dioxopiperidin-3-yl)-1-oxoisoindolin-4-yl)pent-4-yn-1-yl)piperazin-1-yl)piperidin-1-yl)-4-methoxyphenyl)-3-(1H-imidazol-4-yl)acrylamide] | 2600 |

Further compounds by falling GI50, results first:

| GI50 [nM] | Structure (SMILES) |
| --- | --- |
| 49.5 | C=C(F)C(=O)Nc1cc(Nc2ncc(Cl)c(Nc3ccccc3P(C)(C)=O)n2)c(OC)cc1N1CCC(N2CCN(CCCCC#Cc3cccc4c3CN(C3CCC(=O)NC3=O)C4=O)CC2)CC1 (stereo not drawn) [Compound D553, N-(5-((5-chloro-4-((2-(dimethylphosphoryl)phenyl)amino)pyrimidin-2-yl)amino)-2-(4-(4-(6-(2-(2,6-dioxopiperidin-3-yl)-1-oxoisoindolin-4-yl)hex-5-yn-1-yl)piperazin-1-yl)piperidin-1-yl)-4-methoxyphenyl)-2-fluoroacrylamide] |
| 45.2 | C=C(F)C(=O)Nc1cc(Nc2ncc(Cl)c(Nc3ccccc3P(C)(C)=O)n2)c(OC)cc1N1CCC(N2CCN(CCCCCC#Cc3cccc4c3CN(C3CCC(=O)NC3=O)C4=O)CC2)CC1 (stereo not drawn) [Compound D554, N-(5-((5-chloro-4-((2-(dimethylphosphoryl)phenyl)amino)pyrimidin-2-yl)amino)-2-(4-(4-(7-(2-(2,6-dioxopiperidin-3-yl)-1-oxoisoindolin-4-yl)hept-6-yn-1-yl)piperazin-1-yl)piperidin-1-yl)-4-methoxyphenyl)-2-fluoroacrylamide] |
| 41.4 | C=C(C)C(=O)Nc1cc(Nc2ncc(Cl)c(Nc3ccccc3P(C)(C)=O)n2)c(OC)cc1N1CCC(N2CCN(CCCC#Cc3cccc4c3CN(C3CCC(=O)NC3=O)C4=O)CC2)CC1 (stereo not drawn) [Compound D579, N-(5-((5-chloro-4-((2-(dimethylphosphoryl)phenyl)amino)pyrimidin-2-yl)amino)-2-(4-(4-(5-(2-(2,6-dioxopiperidin-3-yl)-1-oxoisoindolin-4-yl)pent-4-yn-1-yl)piperazin-1-yl)piperidin-1-yl)-4-methoxyphenyl)methacrylamide] |
| 14.5 | C=CC(=O)Nc1cc(Nc2ncc(Br)c(Nc3ccccc3P(C)(C)=O)n2)ccc1N1CCC(N2CCN(CCCCCC#Cc3cccc4c3CN(C3CCC(=O)NC3=O)C4=O)CC2)CC1 (stereo not drawn) [Compound D551, N-(5-((5-bromo-4-((2-(dimethylphosphoryl)phenyl)amino)pyrimidin-2-yl)amino)-2-(4-(4-(7-(2-(2,6-dioxopiperidin-3-yl)-1-oxoisoindolin-4-yl)hept-6-yn-1-yl)piperazin-1-yl)piperidin-1-yl)phenyl)acrylamide] |
| 14.4 | C=CC(=O)Nc1cc(Nc2ncc(Br)c(Nc3ccccc3P(C)(C)=O)n2)ccc1N1CCC(N2CCN(CCCCC#Cc3cccc4c3CN(C3CCC(=O)NC3=O)C4=O)CC2)CC1 (stereo not drawn) [Compound D550, N-(5-((5-bromo-4-((2-(dimethylphosphoryl)phenyl)amino)pyrimidin-2-yl)amino)-2-(4-(4-(6-(2-(2,6-dioxopiperidin-3-yl)-1-oxoisoindolin-4-yl)hex-5-yn-1-yl)piperazin-1-yl)piperidin-1-yl)phenyl)acrylamide] |
| 7.41 | C=CC(=O)Nc1cc(Nc2ncc(Br)c(Nc3ccccc3P(C)(C)=O)n2)ccc1N1CCC(N2CCN(CCCC#Cc3cccc4c3CN(C3CCC(=O)NC3=O)C4=O)CC2)CC1 (stereo not drawn) [Compound D549, N-(5-((5-bromo-4-((2-(dimethylphosphoryl)phenyl)amino)pyrimidin-2-yl)amino)-2-(4-(4-(5-(2-(2,6-dioxopiperidin-3-yl)-1-oxoisoindolin-4-yl)pent-4-yn-1-yl)piperazin-1-yl)piperidin-1-yl)phenyl)acrylamide] |
